# Data reported in ChEMBL document CHEMBL1127504, “Synthesis and evaluation of 4-(2'-methoxyphenyl)-1-[2'-[N-(2"-pyridinyl)-p- iodobenzamido]ethyl]piperazine (p-MPPI): a new iodinated 5-HT1A ligand” (J Med Chem, 1994).
# pKd, pKi: −log10 of the molar value.
# Assays:
# [1] = target: T1, 5-hydroxytryptamine receptor 1A (Rattus norvegicus, UniProt P19327); assay type: tissue-based, Hippocampus
# T1 sequence (P19327 whole entry): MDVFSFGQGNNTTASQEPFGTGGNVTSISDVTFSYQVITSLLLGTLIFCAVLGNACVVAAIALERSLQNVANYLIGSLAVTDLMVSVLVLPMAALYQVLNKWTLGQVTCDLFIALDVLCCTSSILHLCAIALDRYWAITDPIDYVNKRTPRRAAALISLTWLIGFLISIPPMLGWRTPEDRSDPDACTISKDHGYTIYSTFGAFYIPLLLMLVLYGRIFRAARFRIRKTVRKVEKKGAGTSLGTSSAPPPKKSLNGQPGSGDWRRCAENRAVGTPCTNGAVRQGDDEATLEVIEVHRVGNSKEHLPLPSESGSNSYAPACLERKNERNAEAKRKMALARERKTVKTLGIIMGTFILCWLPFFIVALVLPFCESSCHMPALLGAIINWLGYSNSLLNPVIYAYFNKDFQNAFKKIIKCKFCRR
# [2] = target: T1, 5-hydroxytryptamine receptor 1A; assay type: tissue-based, Hippocampus; remark: listed apart in the source
# [3] = target: T2, 5-hydroxytryptamine receptor 1A (Rattus norvegicus) (UniProt P19327); assay type: tissue-based; conditions: Hippocampus
# T2 sequence (whole entry): T1 sequence (P19327 whole entry)
# [4] = target: T1, 5-hydroxytryptamine receptor 1A; experiment: biochemical
# Description: Inhibition of binding of [125I]8-OH-PIPAT ligand to 5-hydroxytryptamine 1A receptor of rat hippocampal homogenates
structure (smiles),measurement,setting,value
COc1ccccc1N1CCN(CCCCNC(=O)C23C[C@H]4C[C@@H](C2)C[C@@H](C3)C4)CC1,pKd,[1],9.40
COc1ccccc1N1CCN(CCN(C(=O)c2ccc(I)cc2)c2ccccn2)CC1,pKd,[2],9.52
CCCN(C/C=C/I)C1CCc2cccc(O)c2C1 (centres undefined),Bmax (fM (mg of protein)-1),[3],310
same,pKi,[4],9.42
